# Assay results published in US8481521B2, “Methods of treating cell proliferative disorders” (Rigel Pharmaceuticals, Inc., priority 2005, dated 2013).
# Assays:
# [1] = system: pErk1/2 and pStat5; test: Immunohistochemical staining for pErk1/2 and pStat5 in MV4-11 tumor sections; format: in vivo; details: 40 mg/kg VII, 26 days
# Description: Tumors were harvested from mice ˜2 hours following final dose of vehicle or 40 mg/kg VII.
# [2] = system: Flt-3; test: Flt-3 phosphorylation in MV4-11 tumor lysates (immunoprecipitation, Western blot); format: in vivo, human; details: 40 mg/kg VII, about two hours after final dose, vs vehicle
# Description: Panel A is detection of phosphorylated Flt-3 in MV4-11 tumor lysates from mice approximately two hours after the final dose of VII or vehicle using anti-phosphotyrosine antibody on the left and anti-phospho-Flt-3 specific antibody on the right side of the blot. Additionally, a reprobe of the blot for the total Flt-3 levels are shown in Panel B.
# Western blot analysis of phosphorylated Flt-3 was carried out as follows.
# 3. Weigh and normalize in 250 mg/l ml ice-cold RIPA buffer (Santa Cruz Biotechnology, sc-24948) containing protease inhibitor and phosphotase inhibitor cocktail (Sigma, P5726, 1 ml/100 ml lysis buffer).
# Immunoprecipitation. • 1. Take 1 mg tumor lysate and add primary antibody 2 ug (Anti-Flt-3 S18, Santa Cruz, #sc-480) adjust volume to 500 ul with lysis buffer. Incubate with gentle rocking for 1 h at 4° C. • 2. Add protein A/G plus-agarose beads (Santa Cruz, SC-2003) 40 ul. Incubate with gentle rocking for 1 h at RT. • 3. Microcentrifuge for 30 second at 4° C. Wash pellet three times with 500 ul of 1× lysis buffer. Keep on ice during washes. • 4. Resuspend the pellet with 30 ul 2× Tris-Glysine SDS loading buffer+5 ul reducing agent 10× (Invitrogen). • 5. Heat the sample to 95-100° C. for 5 minutes. • 6. Store the sample at −80° C.
# Western Blot Procedure. • 1. Load 20 ul of the sample on 8% Tris-Glysine gel. • 2. Run in 1× Tris-glysine SDS running buffer. • 3. […]
compound,measurement,setting,value
"COc1cc(Nc2ncc(F)c(Nc3ccc4c(n3)N(COP(=O)(O)O)C(=O)C(C)(C)O4)n2)cc(OC)c1OC [Compound 4, N4-(2,2-dimethyl-4-[(dihydrogenphosphonoxy)methyl]-3-oxo-5-pyrido[1,4]oxazin-6-yl)-5-fluoro-N2-(3,4,5-trimethoxyphenyl)-2,4-pyrimidinediamine]",STATS and ERK1/2 phosphorylation in tumor sections,[1],reduced
same,Constitutive phosphorylation of Flt-3 in tumors,[2],reduced
